What is called MBC is the smallest concentration meeting the test's criterion for killing. By MIC is commonly meant the lowest concentration found to suppress growth.

Structures are written as SMILES. Converted amounts (≈) assume the structure as drawn. Like-named read-outs stand apart in the source and are kept apart here.

The results in this text go back to patent US20260258006A1, “NEW ANTIBIOTIC COMPOUNDS” (UNIVERSITÉ CÔTE D'AZUR, priority 2022, published 2026).

Holding throughout (type): cell-based
The subject of data set [1] is Staphylococcus aureus strain RN4220. The data set can be described thus: Bacterial growth inhibition screen at 50 μM. Particulars: RN4220, 50 μM, 20 h, 37° C. The procedure: (§1) The inhibition of the growth of two Staphylococcus aureus strains ([…], modified laboratory strain, non-pathogenic; and S25, pathogenic strain obtained from patients) by the presence of our compounds were used to evaluate their efficacy as bacteriostatic and/or bactericide compounds.
(§2) All compounds presented were dissolved in DMSO (10 mM stock solution) and tested initially at 50 μM concentration. The bacterial growth was measured after 5 h and 20 h incubation at 37° C. with the compounds. As positive control, the antibiotics ampicillin and kanamycin were used.

For data set [2], the system named is Staphylococcus aureus strain S25. The data set can be described thus: Bacterial growth inhibition screen at 50 μM. The following applies: S25, 50 μM, 20 h, 37° C. The procedure:
as §1, §2

Data set [3] deals with Staphylococcus aureus strain RN4220. The data set can be described thus: Minimal Bactericide Concentration (MBC) determination. The following applies: RN4220, 24 h, read-out: MBC RN4220. The procedure:
(§3) MIC is defined as the smallest concentration of a compound that inhibits the growth of bacteria. For that, 6 doses were tested (1, 5, 12.5, 25, 50, 100 μM) for both strains incubated at 37° C., for 20 h.
(§4) Minimum inhibitory concentration (MIC, incubation for 20 h) and maximum bactericide concentration (MBC, incubation for 24 h) for S. aureus strains RN4220 and S25.
(§5) 2 Staphylococcus aureus Strains: • RN4220 (non-pathogenic) • S25 (pathogenic) • MIC: minimal inhibitory concentration • MBC: minimal bactericide concentration

In data set [4] the test system is Staphylococcus aureus strain S25. The description is as above. Particulars: 24 h in fresh media, pathogenic strain. The procedure:
as §3, §4, §5

The subject of data set [5] is human embryonic kidney 293 cells (HEK293). The data set can be described thus: Cytotoxicity by extracellular LDH release (CyQUANT LDH Cytotoxicity Assay Kit). Particulars: HEK293, 24 h, at their active doses (range of MIC and MBC), N=3. The procedure:
• HEK293: 24 h in the presence of the bactericide compounds or DMSO • Method of evaluation: CyQUANT™ LDH Cytotoxicity Assay Kit.
Cytotoxicity through extracellular lactate dehydrogenase (LDH) quantification upon incubation of the compounds with HEK 293T cells at the same range of concentration as MIC and MBC. LDH: positive control, DMEM: negative control. N=3.
Preliminary safety of these compounds towards host cells was evaluated by using a extracellular lactate dehydrogenase (LDH) release model with human embryonic kidney 293 cells (HEK293).
Background: LDH in the medium is a marker of cell lysis.

Data set [6] deals with Staphylococcus aureus strain RN4220. The data set can be described thus: Minimal Inhibitory Concentration (MIC) determination. The following applies: read-out: MIC RN4220. The procedure:
as §3, §4, §5

Data set [7] concerns Staphylococcus aureus strain S25. Described as above. The following applies: Bacteriostatic, 20 h, 37° C., pathogenic strain. The procedure:
as §3, §4, §5

[8] abbreviates: RN4220, Bacteriostatic, 20 h, 37° C., non-pathogenic strain.

For the compound `N=C(Nc1nc2c(F)cc(F)cc2s1)C(Cl)(Cl)Cl` [MTF573, 2,2,2-trichloro-N-(4,6-difluorobenzo[d]thiazol-2-yl)acetimidamide], the “bacterial growth / growth inhibition (in words)” value in data set [1] and in data set [2] was “no growth” each time. Also, the MBC in data set [3] and in data set [4] was 50 µM (≈ 16.5 µg/mL) each time. Further, the “cytotoxicity (extracellular LDH level versus DMSO control)” value in data set [5] is listed as “no cytotoxicity activity”. In addition, the values for the MIC in data set [6] (setting [8]) and in data set [7] were 40 µM (≈ 13.2 µg/mL) and 50 µM (≈ 16.5 µg/mL), respectively.
As for `Cc1cccc2sc(NC(=N)C(Cl)(Cl)Cl)nc12` [MTF572, 2,2,2-trichloro-N-(4-methylbenzo[d]thiazol-2-yl)acetimidamide], the “bacterial growth / growth inhibition (in words)” value in data set [1] and in data set [2] was “no growth” in each case. Besides, in data set [3], the MBC amounted to 100 µM (≈ 30.9 µg/mL). Besides, the MIC in data set [6] (RN4220, 20 h) came out at 40 µM (≈ 12.3 µg/mL); in data set [7], 40 µM (≈ 12.3 µg/mL).
On to `N=C(Nc1nc2c(Cl)cc(Cl)cc2s1)C(Cl)(Cl)Cl` [MTF642, 2,2,2-trichloro-N-(4,6-dichlorobenzo[d]thiazol-2-yl)acetimidamide], for which the MBC in data set [3] came to 12.5 µM (≈ 4.54 µg/mL); in data set [4], 50 µM (≈ 18.2 µg/mL). In addition, the “cytotoxicity (extracellular LDH level versus DMSO control)” value in data set [5] is recorded as “no cytotoxicity activity”. Also, the minimum inhibitory concentration (MIC) amounted to 12.5 µM (≈ 4.54 µg/mL) in data set [6] (setting [8]) and 50 µM (≈ 18.2 µg/mL) in data set [7].
Consider `N=C(Nc1nc2c(Cl)cccc2s1)C(Cl)(Cl)Cl` [MTF235, 2,2,2-trichloro-N-(4-chlorobenzo[d]thiazol-2-yl)acetimidamide], for which the “bacterial growth / growth inhibition (in words)” value in data set [1] and in data set [2] was “no growth” in each case. Besides, the MBC in data set [3] and in data set [4] was 50 µM (≈ 16.5 µg/mL) in each case. The “cytotoxicity (extracellular LDH level versus DMSO control)” value in data set [5] is “no cytotoxicity activity”. Besides, the MIC in data set [6] (setting [8]) and in data set [7] was 25 µM (≈ 8.23 µg/mL) each time.
As to `O=C(Nc1nc2c(Cl)cc(Cl)cc2s1)C(Cl)(Cl)Cl` [MTF640, N-(4,6-dichlorobenzo[d]thiazol-2-yl)trichloroacetamide], the MBC in data set [3] and in data set [4] was 50 µM (≈ 18.2 µg/mL) in each case. For the same compound, the “cytotoxicity (extracellular LDH level versus DMSO control)” value in data set [5] is on record as “no cytotoxicity activity”. The MIC in data set [6] (setting [8]) is 12.5 µM (≈ 4.56 µg/mL); in data set [7], 25 µM (≈ 9.11 µg/mL).
Regarding `N=C(Nc1nc2c(Br)cccc2s1)C(Br)Br` [MTF643, 2,2-dibromo-N-(4-bromobenzo[d]thiazol-2-yl)acetimidamide], the MBC came out at 25 µM (≈ 10.7 µg/mL) in data set [3] and 50 µM (≈ 21.4 µg/mL) in data set [4]. Also, in data set [5], the “cytotoxicity (extracellular LDH level versus DMSO control)” value is on record as “no cytotoxicity activity”. The minimum inhibitory concentration (MIC) in data set [6] (setting [8]) and in data set [7] was 25 µM (≈ 10.7 µg/mL) in each case.
